Here are results for ten compounds from patent publication US4500545A, “Hydroxyaminotetralincarboxamides” (Eli Lilly and Company, priority 1984, dated 1985).

“Also recorded” adds a separate entry of the source.

For one assay, the system named is dopamine receptor. As to conditions: literature; cited from earlier work.
For a further assay, the system named is prolactin secretion. As to the kind of experiment: Prolactin secretion inhibition in reserpine-treated rats. Type of assay: in vivo, rat (adult male Sprague-Dawley). The settings on record: 1 mg./kg. intraperitoneal; reserpine-pretreated male rats; serum 1 hour after treatment. The protocol:
The compounds of this invention are also useful as inhibitors of prolactin secretion. Dopaminergic drugs with such activity can be employed in the treatment of inappropriate lactation, such as postpartum lactation and galactorrhea. […] Each rat received an intraperitoneal injection of 2.0 mg. of reserpine in aqueous suspension 18 hours before administration of the test compound. The purpose of the reserpine was to keep prolactin levels uniformly elevated. The compounds under test were dissolved in water and were injected intraperitoneally at a 1 mg./kg. dose level. Each compound was administered to a group of 10 rats, and a control group of 10 intact males received an equivalent amount of solvent only. One hour after treatment all rats were killed by decapitation, and 150 μl. aliquots of serum were assayed for prolactin.
In the table, column 1 gives the name of the compound and column 2, the percent inhibition of prolactin secretion. The dosage was 1 mg./kg.

The subject of assay [1] is 6-hydroxydopamine-lesioned rats (nigro-neostriatal-lesioned), turning behavior. As to the kind of experiment: Turning behavior in 6-hydroxydopamine-lesioned rats. The settings on record: 1 mg./kg. intraperitoneal; for Number of turns (average): counted over a 15-minute period after latency. It counts as in vivo, rat. The source says: Compounds with dopaminergic or dopamine agonist activity also affect turning behavior in a test procedure utilizing 6-hydroxydopamine-lesioned rats. In this test, nigro-neostriatal-lesioned rats, prepared by the procedure of Ungerstedt and Arbuthnott, Brain Res, 24, 485 (1970), are employed. A compound having dopamine agonist activity, upon injection, causes the rats to turn in circles contralateral to the side of the lesion. After a latency period, which varies from compound to compound, the number of turns is counted over a 15-minute period. The drugs to be administered are dissolved in water and the resulting aqueous solution injected into the rat by the intraperitoneal route at a 1 mg./kg. dose level.

For assay [2], the system named is mean arterial blood pressure, anesthetized spontaneously hypertensive rats. As to the kind of experiment: Blood pressure lowering in anesthetized spontaneously hypertensive rats (SHR). It counts as in vivo, rat (spontaneously hypertensive). The settings on record: ± standard error. The protocol:
As previously stated, the compounds of this invention are dopamine agonists. As such, one of their properties, shared by many dopamine agonists, is the ability to lower blood pressure in anesthetized spontaneously hypertensive rats (SHR). Table 1 which follows gives the results of testing compounds of this invention which lowered the blood pressure of anesthetized SHR at dose levels of 1 mg./kg. or lower. In the Table, the first 4 columns give the substitution pattern of the hydroxyaminonaphthalene carboxamide and the second 4 columns the percent blood pressure lowering±standard error for the particular compound at 4 different dose levels.

The conditions of assay [3]: literature; cited from earlier work.

Regarding `CN(C)C1CCc2c(ccc(O)c2O)C1` (centres unmarked) [Example M7, 2-dimethylamino-5,6-dihydroxy-1,2,3,4-tetralin], the “dopamine-like activity (in words)” value in the assay with dopamine receptor was “dopamine-like activity; also recorded: Its action parallels that of apomorphine”.
For `CN(C)C1CCc2cc(O)c(C(N)=O)cc2C1` (racemic) [dl-3-hydroxy-7-dimethylamino-5,6,7,8-tetrahydro-2-naphthalenecarboxamide], the “Percent Inhibition of Prolactin Secretion” value (shortened to “Percent Inhibition”) in the assay with prolactin secretion was found to be 36%. Moreover, the “Percentage of rats exhibiting turning behavior” value in assay [1] came out at 50%. Moreover, the “Number of turns (average)” value in assay [1] is reported as 20. The “Percent lowering of mean arterial blood pressure” value (from here on “Percent lowering”) is reported as -32.5 ± 2.2% in assay [2] (1 mg./kg.), -6.2 ± 0.7% in assay [2] (7 mcg./kg.), -14.0 ± 0.5% in assay [2] (10 mcg./kg.) and -25.1 ± 3.0% in assay [2] (100 mcg./kg.).
With `CC(C)NC1CCc2c(ccc(O)c2CO)C1O` (centres unmarked) [1-hydroxymethyl-2,5-dihydroxy-6-isopropylamino-5,6,7,8-tetrahydronaphthalene], the “bronchodilator activity (in words)” value in assay [3] is recorded as “bronchodilator”.
Take `CCCN(CCC)C1CCc2c(ccc(O)c2C(N)=O)C1` (racemic) [dl-2-Hydroxy-6-di-n-propylamino-5,6,7,8-tetrahydro-1-naphthalenecarboxamide]: in the assay with prolactin secretion, the “Percent Inhibition” value is 12%.
Consider `NC(=O)c1c(O)ccc2c1CCC(N)C2` (racemic) [dl-2-Hydroxy-6-amino-5,6,7,8-tetrahydronaphthalene-1-carboxamide], for which the “Percent Inhibition” value in the assay with prolactin secretion worked out at 13%.
For the compound `NC1CCc2cc(O)c(O)cc2C1` (centres unmarked) [ADTN, 2-amino-6,7-dihydroxy-1,2,3,4-tetralin], the “dopamine-like activity (in words)” value with dopamine receptor is on record as “dopamine-like action”.
As for `NC(=O)c1cc2c(cc1O)CCC(N)C2` (racemic) [dl-3-Hydroxy-7-amino-5,6,7,8-tetrahydro-2-naphthlenecarboxamide], the “Percent Inhibition” value with prolactin secretion came out at 18%. Besides, the “Percent lowering” value in assay [2] (1 mg./kg.) is given as -18.3 ± 4.3%; in assay [2] (7 mcg./kg.), -3.6 ± 0.4%; in assay [2] (10 mcg./kg.) it was -5.2 ± 0.8%; in assay [2] (100 mcg./kg.), -10.2 ± 1.2%.
In the case of `CN(C)C1CCc2c(ccc(O)c2C(N)=O)C1` (racemic) [R=CONH2, R^1=H, R^2=Me, R^3=Me, dl-2-hydroxy-6-dimethylamino-5,6,7,8-tetrahydro-1-naphthalenecarboxamide], the “Percent lowering” value in assay [2] (1 mg./kg.) is -6.0 ± 0.5%; in assay [2] (7 mcg./kg.), -6.8 ± 0.3%; in assay [2] (10 mcg./kg.) it was -5.7 ± 0.3%; in assay [2] (100 mcg./kg.), -6.7 ± 0.8%.
Regarding `CCCN(CCC)C1CCc2cc(O)c(C(N)=O)cc2C1` (racemic) [dl-3-Hydroxy-7-di-n-propylamino-5,6,7,8-tetrahydro-2-naphthalenecarboxamide], in the assay with prolactin secretion, the “Percent Inhibition” value is on record as 88%. The “Percentage of rats exhibiting turning behavior” value in assay [1] worked out at 75%. Moreover, in assay [1], the “Number of turns (average)” value was 71. Moreover, the “Percent lowering” value in assay [2] (1 mg./kg.) is recorded as -41.9 ± 1.6%; in assay [2] (7 mcg./kg.), -6.8 ± 0.5%; in assay [2] (10 mcg./kg.), -19.6 ± 0.8%; in assay [2] (100 mcg./kg.), -35.9 ± 2.3%.
Consider `CN(C)C1CCc2cc(O)c(O)cc2C1` (stereo not drawn) [6,7-dihydroxy isomer], for which the “dopamine-like activity (in words)” value in the assay with dopamine receptor is given as “presynaptic dopamine receptor agonist”.
